Laboratory results published in US8952024B2, “Herbicidal pyrimidone derivatives” (E I du Pont de Nemours and Company, priority 2009, dated 2015).

How the values were obtained:
Assay in all cases: Test D pre-/postemergence plant response
Type in all cases: in vivo
[1] = tested on: black mustard (Brassica nigra)
Procedure, shortened: (§1)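 Seeds in loam–sand blend treated preemergence, and plants at 1- to 4-leaf stage (2–18 cm) treated postemergence, with compounds in non-phytotoxic solvent with surfactant. Greenhouse for 14–21 days, then visual rating against controls, 0 (no effect) to 100 (complete control).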

[2] = tested on: nutsedge (purple nutsedge, Cyperus rotundus)
Procedure, shortened: as §1

[3] = tested on: Surinam grass (Brachiaria decumbens)
Procedure, shortened: as §1

kochia (Kochia scoparia) = tested on: kochia (Kochia scoparia)
Procedure, shortened: as §1

[4] = tested on: sowthistle (common sowthistle, Sonchus oleraceous)
Procedure, shortened: as §1

[5] = tested on: itchgrass (Rottboellia cochinchinensis)
Procedure, shortened: as §1

[6] = tested on: signalgrass (broadleaf signalgrass, Brachiaria platyphylla)
Procedure, shortened: as §1

[7] = tested on: bluegrass (annual bluegrass, Poa annua)
Procedure, shortened: as §1

[8] = tested on: guineagrass (Panicum maximum)
Procedure, shortened: as §1

[9] = tested on: bermudagrass (Cynodon dactylon)
Procedure, shortened: as §1

[10] = tested on: dayflower (Virginia (VA) dayflower, Commelina virginica)
Procedure, shortened: as §1

[11] = tested on: spanishneedles (Bidens bipinnata)
Procedure, shortened: as §1

[12] = tested on: prickly sida (Sida spinosa)
Procedure, shortened: as §1

[13] = tested on: goosegrass (Eleusine indica)
Procedure, shortened: as §1

[14] = tested on: green foxtail (Setaria viridis)
Procedure, shortened: as §1

[15] = tested on: morningglory (pitted morningglory, Ipomoea lacunosa)
Procedure, shortened: as §1

[16] = tested on: purslane (common purslane, Portulaca oleracea)
Procedure, shortened: as §1

[17] = Postemergence, 31 g ai/ha, scale 0 to 100 (0 no effect, 100 complete control)
[18] = Postemergence, 62 g ai/ha, scale 0 to 100 (0 no effect, 100 complete control)
[19] = Postemergence, 125 g ai/ha, scale 0 to 100 (0 no effect, 100 complete control)
[20] = Postemergence, 16 g ai/ha, scale 0 to 100
[21] = Preemergence, 16 g ai/ha, scale 0 to 100, 0 no effect, 100 complete control
[22] = Preemergence, 31 g ai/ha, scale 0 to 100 (0 no effect, 100 complete control)
[23] = Preemergence, 62 g ai/ha, scale 0 to 100
[24] = Preemergence, 125 g ai/ha, scale 0 to 100
[25] = Postemergence, 31 g ai/ha, scale 0 to 100

SMILES: COCCn1c(-c2ccccc2)ncc(C(=O)C2=C(O)CCCC2=O)c1=O [Compound 85]
- Plant response rating, Black Mustard [1, 17]: 60
- Plant response rating, Black Mustard [1, 18]: 75
- Plant response rating, Black Mustard [1, 19]: 85
- Plant response rating, Black Mustard [1, 20]: 35
- Plant response rating, Black Mustard [1, 21]: 50
- Plant response rating, Black Mustard [1, 22]: 60
- Plant response rating, Black Mustard [1, 23]: 98
- Plant response rating, Black Mustard [1, 24]: 100
- Plant response rating, Nutsedge, Purple [2, 25]: 30
- Plant response rating, Nutsedge, Purple [2, 18]: 50
- Plant response rating, Nutsedge, Purple [2, 19]: 65
- Plant response rating, Nutsedge, Purple [2, 20]: 5
- Plant response rating, Nutsedge, Purple [2, 21]: 70
- Plant response rating, Nutsedge, Purple [2, 22]: 75
- Plant response rating, Nutsedge, Purple [2, 23]: 95
- Plant response rating, Nutsedge, Purple [2, 24]: 95
- Plant response rating, Surinam Grass [3, 25]: 75
- Plant response rating, Surinam Grass [3, 18]: 75
- Plant response rating, Surinam Grass [3, 19]: 85
- Plant response rating, Surinam Grass [3, 21]: 98
- Plant response rating, Surinam Grass [3, 22]: 100
- Plant response rating, Surinam Grass [3, 24]: 100
- Plant response rating, Kochia (kochia (Kochia scoparia); [25]): 10
- Plant response rating, Kochia (kochia (Kochia scoparia); [18]): 20
- Plant response rating, Kochia (kochia (Kochia scoparia); [19]): 60
- Plant response rating, Kochia (kochia (Kochia scoparia); [20]): 0
- Plant response rating, Kochia (kochia (Kochia scoparia); [21]): 5
- Plant response rating, Kochia (kochia (Kochia scoparia); [22]): 20
- Plant response rating, Kochia (kochia (Kochia scoparia); [23]): 75
- Plant response rating, Kochia (kochia (Kochia scoparia); [24]): 95
- Plant response rating, Sowthistle [4, 25]: 100
- Plant response rating, Sowthistle [4, 18]: 100
- Plant response rating, Sowthistle [4, 19]: 100
- Plant response rating, Sowthistle [4, 20]: 100
- Plant response rating, Sowthistle [4, 21]: 100
- Plant response rating, Sowthistle [4, 22]: 100
- Plant response rating, Sowthistle [4, 24]: 100
- Plant response rating, Itchgrass [5, 25]: 35
- Plant response rating, Itchgrass [5, 18]: 65
- Plant response rating, Itchgrass [5, 19]: 70
- Plant response rating, Itchgrass [5, 20]: 30
- Plant response rating, Itchgrass [5, 21]: 10
- Plant response rating, Itchgrass [5, 22]: 15
- Plant response rating, Itchgrass [5, 23]: 35
- Plant response rating, Itchgrass [5, 24]: 50
- Plant response rating, Signalgrass [6, 25]: 35
- Plant response rating, Signalgrass [6, 18]: 60
- Plant response rating, Signalgrass [6, 19]: 75
- Plant response rating, Signalgrass [6, 20]: 20
- Plant response rating, Signalgrass [6, 21]: 5
- Plant response rating, Signalgrass [6, 22]: 60
- Plant response rating, Signalgrass [6, 24]: 95
- Plant response rating, Bluegrass [7, 17]: 0
- Plant response rating, Bluegrass [7, 18]: 5
- Plant response rating, Bluegrass [7, 19]: 5
- Plant response rating, Bluegrass [7, 20]: 0
- Plant response rating, Bluegrass [7, 21]: 0
- Plant response rating, Bluegrass [7, 22]: 0
- Plant response rating, Bluegrass [7, 23]: 0
- Plant response rating, Bluegrass [7, 24]: 15
- Plant response rating, Guineagrass [8, 25]: 20
- Plant response rating, Guineagrass [8, 18]: 35
- Plant response rating, Guineagrass [8, 19]: 60
- Plant response rating, Guineagrass [8, 20]: 10
- Plant response rating, Guineagrass [8, 21]: 0
- Plant response rating, Guineagrass [8, 22]: 10
- Plant response rating, Guineagrass [8, 23]: 70
- Plant response rating, Guineagrass [8, 24]: 75
- Plant response rating, Bermudagrass [9, 17]: 75
- Plant response rating, Bermudagrass [9, 18]: 80
- Plant response rating, Bermudagrass [9, 19]: 90
- Plant response rating, Bermudagrass [9, 20]: 65
- Plant response rating, Bermudagrass [9, 21]: 80
- Plant response rating, Bermudagrass [9, 22]: 100
- Plant response rating, Bermudagrass [9, 23]: 100
- Plant response rating, Bermudagrass [9, 24]: 100
- Plant response rating, Dayflower, VA [10, 25]: 30
- Plant response rating, Dayflower, VA [10, 18]: 60
- Plant response rating, Dayflower, VA [10, 19]: 80
- Plant response rating, Dayflower, VA [10, 20]: 20
- Plant response rating, Dayflower, VA [10, 21]: 5
- Plant response rating, Dayflower, VA [10, 22]: 10
- Plant response rating, Dayflower, VA [10, 23]: 90
- Plant response rating, Dayflower, VA [10, 24]: 95
- Plant response rating, Spanishneedles [11, 25]: 75
- Plant response rating, Spanishneedles [11, 18]: 90
- Plant response rating, Spanishneedles [11, 19]: 95
- Plant response rating, Spanishneedles [11, 20]: 75
- Plant response rating, Spanishneedles [11, 21]: 90
- Plant response rating, Spanishneedles [11, 22]: 98
- Plant response rating, Spanishneedles [11, 24]: 100
- Plant response rating, Spanishneedles ([11]; Preemergence, rate not given, scale 0 to 100, 0 no effect, 100 complete control): 98
- Plant response rating, Prickly Sida [12, 25]: 95
- Plant response rating, Prickly Sida [12, 18]: 95
- Plant response rating, Prickly Sida [12, 19]: 98
- Plant response rating, Prickly Sida [12, 21]: 90
- Plant response rating, Prickly Sida [12, 22]: 100
- Plant response rating, Prickly Sida [12, 23]: 100
- Plant response rating, Prickly Sida [12, 24]: 100
- Plant response rating, Goosegrass [13, 25]: 65
- Plant response rating, Goosegrass [13, 18]: 75
- Plant response rating, Goosegrass [13, 19]: 75
- Plant response rating, Goosegrass [13, 20]: 40
- Plant response rating, Goosegrass [13, 21]: 65
- Plant response rating, Goosegrass [13, 22]: 75
- Plant response rating, Goosegrass [13, 23]: 75
- Plant response rating, Goosegrass [13, 24]: 98
- Plant response rating, Foxtail, Green [14, 25]: 25
- Plant response rating, Foxtail, Green [14, 18]: 35
- Plant response rating, Foxtail, Green [14, 19]: 65
- Plant response rating, Foxtail, Green [14, 20]: 20
- Plant response rating, Foxtail, Green [14, 21]: 0
- Plant response rating, Foxtail, Green [14, 22]: 5
- Plant response rating, Foxtail, Green [14, 23]: 40
- Plant response rating, Foxtail, Green [14, 24]: 70
- Plant response rating, Morningglory [15, 25]: 70
- Plant response rating, Morningglory [15, 18]: 75
- Plant response rating, Morningglory [15, 19]: 90
- Plant response rating, Morningglory [15, 20]: 70
- Plant response rating, Morningglory [15, 22]: 70
- Plant response rating, Morningglory [15, 23]: 90
- Plant response rating, Morningglory [15, 24]: 100
- Plant response rating, Purslane [16, 25]: 80
- Plant response rating, Purslane [16, 18]: 90
- Plant response rating, Purslane [16, 19]: 90
- Plant response rating, Purslane [16, 20]: 75
- Plant response rating, Purslane [16, 21]: 80
- Plant response rating, Purslane [16, 22]: 100
- Plant response rating, Purslane [16, 23]: 100
- Plant response rating, Purslane [16, 24]: 100
